Earlier results in patent US20030105165A1, “Gap junctions and EDHF” (priority 2001, published 2003).

System: rabbit arteries
Settings: endothelium-, gap junction- and cAMP-dependent; cited from earlier work

For `CCCCC/C=C\C/C=C\C/C=C\CC1OC1CCCC(=O)O` (stereo not shown) [5,6-EET], the “Relaxation of rabbit arteries by EET regioisomers” value is given as “evokes relaxations”.
